We go through 13 molecules from patent US10828315B2 (Madrigal Pharmaceuticals, Inc., priority 2013, dated 2020).

Structures are written as SMILES. Like-named read-outs stand apart in the source and are kept apart here.

For data set [1], the system named is HER2. The experiment in a line: HER2 degradation assay with BT-474 cell line (Example 12, FACS). In kind it is cell-based, human.
Data set [2] in a line: Artificial membrane permeability assay (PAMPA).
A short description of data set [3]: Retention of docetaxel SDC-TRAPs in plasma and tumor (Example 53). It counts as in vivo, Female SCID Mouse (H1975). To be noted: DRD.
Description: Blood samples (˜300 μL) were collected by cardiac puncture and immediately centrifuged at 6000 rpm for 8 minutes at approximately 4° C. Resulting plasma samples (˜150 μL) were stored at −80° C. until analysis.
Following sacrifice, tumors were immediately dissected on ice, flash frozen in liquid N2, and stored at −80° C. until analysis.
To 55 μL of plasma samples, 200 μL of methanol containing 150-250 ng/mL internal standard(s) was added. Samples were vortex mixed for approximately 1.5 minutes at ambient temperature and then centrifuged at 4400 rpm for 10 mm at approximately 4° C. The resulting supernatants (175 μL) were transferred to a 96-well plate and dried under nitrogen at 40° C. Dried samples were reconstituted with 100 μL 50/50 (v/v) water/methanol, vortex mixed and 10 μL were injected into LC-MS/MS.
Tumor samples were weighed and homogenized in 5 volume of ice-cold phosphate buffered saline on ice using a hand-held homogenizer. To 55 μL of tumor homogenate samples, 200 μL of methanol containing 150-250 ng/mL internal standard(s) was added. Samples were vortex mixed for approximately 1.5 minutes at ambient temperature and then centrifuged at 4400 rpm for 10 min at approximately 4° C. The resulting supernatants (175 μL) were transferred to a 96-well plate and dried under nitrogen at 40° C. Dried samples were reconstituted with 100 μL 50/50 (v/v) water/methanol, vortex mixed and 10 μL were injected into LC-MS/MS.
Plasma and tumor samples were analyzed by LC-MS/MS using an Agilent 1100 HPLC (Agilent Technologies, Santa Clara, Calif.) interfaced to an API 4000 tandem mass spectrometer (Applied Biosystems, Foster City, Calif.). […] The flow rate was 0.5 mL/min. […] Quantitation for each analyte was done by extrapolation from a standard curve ranging from 2.50 to 50000 nM with 1/x^2 weighting.
Blood samples (˜300 μL) were collected by cardiac puncture and immediately centrifuged at 6000 rpm for 8 minutes at approximately 4° C. Resulting plasma samples (˜150 μL) were transferred to Eppendorf tubes containing approximately 5-10 mg of NaF, vortex mixed, and stored at −80° C. until analysis.
Following sacrifice tumors were immediately dissected on ice, flash frozen in liquid N2, and stored at −80° C. until analysis.
To 60 μL of plasma samples, 25 μL of 75/25 (v/v) water/acetonitrile containing 100 ng/mL internal standard(s) and 200 μL of acetonitrile were added. Samples were vortex mixed for approximately 2 minutes at ambient temperature and then centrifuged at 4400 rpm for 10 min at approximately 4° C. The resulting supernatants (300 μL) were transferred to a 96-well plate and dried under nitrogen at 40° C. Dried samples were reconstituted with 500 μL 60/40 (v/v) water/acetonitrile, vortex mixed and 10 μL were injected into LC-MS/MS.
Tumor samples were weighed and homogenized in 3 volume of ice-cold phosphate buffered saline on ice using a hand-held homogenizer. To 60 μL of tumor homogenate samples, 25 μL of 75/25 (v/v) water/acetonitrile containing 100 ng/mL internal standard(s) and 200 μL of acetonitrile were added. […] The resulting supernatants (200 μL) were transferred to a 96-well plate and dried under nitrogen at 40° C. Dried samples were reconstituted with 600 μL 60/40 (v/v) water/acetonitrile, vortex mixed and 10 μL were injected into LC-MS/MS.
Plasma and tumor samples were analyzed by LC-MS/MS using an Agilent 1100 HPLC (Agilent Technologies, Santa Clara, Calif.) interfaced to an API 4000 tandem mass spectrometer (Applied Biosystems, Foster City, Calif.). The separation of analytes were performed on a Symmetry Shield Sum C18 (2.1×100 mm; 100 Å) column (Waters, Milford, Mass.) with a run time of 5.0 mm per sample using the mobile phase consisted of 0.1% formic acid (A) and acetonitrile containing 0.1% formic acid (B). […] Quantitation for each analyte was done by extrapolation from a standard curve ranging from 1.00 to 25000 ng/mL with 1/x^2 weighting.
Setting [4] is: of analyte at 24 h, dosed SDC-TRAP-0427 25 mg/10 mL/kg IV, Table 4.
The mark [5] stands for this setting: of analyte at 48 h, dosed SDC-TRAP-0427 25 mg/10 mL/kg IV, Table 4.
Where [6] appears, read: of analyte at 72 h, dosed SDC-TRAP-0427 25 mg/10 mL/kg IV, Table 4.
Where [7] appears, read: of analyte at 48 h, dosed SDC-TRAP-0428 25 mg/10 mL/kg IV, Table 4.
[8] abbreviates: of analyte at 48 h, dosed SDC-TRAP-0423 7 mg/10 mL/kg IV, Table 5, second optimized procedure.
The mark [9] stands for this setting: of analyte at 72 h, dosed SDC-TRAP-0423 7 mg/10 mL/kg IV, Table 5, second optimized procedure.

Turning to `CCc1c2c(nc3ccc(OC(=O)N4CCC[C@H]4C(=O)N4CCC(CCn5ccc6cc(-n7c(O)nnc7-c7cc(C(C)C)c(O)cc7O)ccc65)CC4)cc13)-c1cc3c(c(=O)n1C2)COC(=O)[C@]3(O)CC` [SDC-TRAP-0210], in data set [1], the IC50 was greater than 10 µM. For the same molecule, the “Mass Retention” value in data set [2] (incubation 5 h, first table) is on record as 34.8%; in data set [2] (same protocol, second table) it was 72.2%.
Consider `CC(C)c1cc(-c2nnc(C(=O)NCCCCCS(N)(=O)=O)n2-c2ccc(CN3CCOCC3)cc2)c(O)cc1O` [SDC-TRAP-0232, 5-(2,4-dihydroxy-5-isopropylphenyl)-4-(4-(morpholinomethyl)phenyl)-N-(5-sulfamoylpentyl)-4H-1,2,4-triazole-3-carboxamide], for which the “Mass Retention” value in data set [2] (incubation 5 h, first table) was 21.0%.
As to `CC(C)c1cc(-c2nnc(O)n2-c2ccc3c(ccn3CCNC(=O)CCCCCNC(=O)CCCC[C@H]3SCC4NC(=O)NC43)c2)c(O)cc1O` (stereo in doubt) [SDC-TRAP-0234, N-(2-(5-(3-(2,4-dihydroxy-5-isopropylphenyl)-5-hydroxy-4H-1,2,4-triazol-4-yl)-1H-indol-1-yl)ethyl)-6-(5-((3aR,4R,6aS)-2-oxohexahydro-1H-thieno[3,4-d]imidazol-4-yl)pentanamido)hexanamide], the “Mass Retention” value in data set [2] (incubation 5 h, first table) stood at 9.56%.
For the molecule `CC(C)c1cc(-c2nnc(O)n2-c2ccc(CN3CCN(C(=O)CCn4cc(F)c(=O)[nH]c4=O)CC3)cc2)c(O)cc1O` [SDC-TRAP-0049, 1-(3-(4-(4-(3-(2,4-dihydroxy-5-isopropylphenyl)-5-hydroxy-4H-1,2,4-triazol-4-yl)benzyl)piperazin-1-yl)-3-oxopropyl)-5-fluoropyrimidine-2,4(1H,3H)-dione], in data set [2] (incubation 5 h, first table), the “Mass Retention” value is on record as 14.1%.
Consider `Cn1c(=O)c2c(ncn2C)n(C)c1=O` [Caffeine], for which the “Mass Retention” value is 20.8% in data set [2] (incubation 5 h, first table) and −0.11% in data set [2] (same protocol, second table).
Regarding `CC(=O)O[C@@]12CO[C@@H]1C[C@H](O)[C@@]1(C)C(=O)[C@H](O)C3=C(C)[C@@H](OC(=O)[C@H](O)[C@@H](NC(=O)OC(C)(C)C)c4ccccc4)C[C@@](O)([C@@H](OC(=O)c4ccccc4)[C@H]21)C3(C)C` [Docetaxel, docetaxel, reference compound], the “Mass Retention” value in data set [2] (incubation 5 h, first table) was found to be 17.6%.
Same read-out and setting: the value for `CC(C)c1cc(-c2nnc(O)n2-c2ccc3c(ccn3CCNC(=O)CCCC[C@@H]3SCC4NC(=O)NC43)c2)c(O)cc1O` (stereo in doubt) [SDC-TRAP-0233, N-(2-(5-(3-(2,4-dihydroxy-5-isopropylphenyl)-5-hydroxy-4H-1,2,4-triazol-4-yl)-1H-indol-1-yl)ethyl)-5-((3aS,4S,6aR)-2-oxohexahydro-1H-thieno[3,4-d]imidazol-4-yl)pentanamide] was 10.9%.
On to `CC(=O)O[C@@]12CO[C@@H]1C[C@H](O)[C@@]1(C)C(=O)[C@H](O)C3=C(C)[C@@H](OC(=O)[C@H](OC(=O)CCC(=O)NC4CCN(C(=O)C5CCN(Cc6ccc(-n7c(O)nnc7-c7cc(C(C)C)c(O)cc7O)cc6)CC5)CC4)[C@@H](NC(=O)OC(C)(C)C)c4ccccc4)C[C@@](O)([C@@H](OC(=O)c4ccccc4)[C@H]21)C3(C)C` [SDC-TRAP-0427], for which the concentration at 6 h in data set [3] (female, SCID, mouse, in vivo, of analyte at 6 h, dosed SDC-TRAP-0427 7 mg/10 mL/kg IV, Table 5, second optimized procedure, read-out: Plasma Conc.) worked out at 8390 nM; in data set [3] (female, SCID, mouse, in vivo, of analyte at 6 h, dosed SDC-TRAP-0427 25 mg/10 mL/kg IV, Table 4, read-out: Plasma Conc.) it was 20900 nM. Besides, the concentration at 48 h in data set [3] (female, SCID, mouse, in vivo, of analyte at 48 h, dosed SDC-TRAP-0427 7 mg/10 mL/kg IV, Table 5, second optimized procedure, read-out: Plasma Conc.) was 11.8 nM. Also, in data set [3] (female, SCID, mouse, in vivo, of analyte at 72 h, dosed SDC-TRAP-0427 7 mg/10 mL/kg IV, Table 5, second optimized procedure, read-out: Plasma Conc.), the concentration at 72 h amounted to 10.1 nM. In addition, the “Tumor Conc.” value is recorded as 1.19 nmol/g of tissue in data set [3] (of analyte at 6 h, dosed SDC-TRAP-0427 7 mg/10 mL/kg IV, Table 5, second optimized procedure); 13.6 nmol/g of tissue in data set [3] (of analyte at 6 h, dosed SDC-TRAP-0427 25 mg/10 mL/kg IV, Table 4); 14.6 nmol/g of tissue in data set [3] (setting [4]); 0.458 nmol/g of tissue in data set [3] (of analyte at 48 h, dosed SDC-TRAP-0427 7 mg/10 mL/kg IV, Table 5, second optimized procedure); 8.02 nmol/g of tissue in data set [3] (setting [5]); 0.372 nmol/g of tissue in data set [3] (of analyte at 72 h, dosed SDC-TRAP-0427 7 mg/10 mL/kg IV, Table 5, second optimized procedure). In data set [3] (setting [6]), the “Tumor Conc.” value is 7.18 nmol/g of tissue. For the same molecule, the “Plasma Conc.” value in data set [3] (setting [4]), in data set [3] (setting [5]) and in data set [3] (setting [6]) was “BQL” in each case.
Regarding `CCNC(=O)c1nnc(-c2cc(C(C)C)c(O)cc2O)n1-c1ccc(CN2CCC(C(=O)N[C@@H](CC(C)C)C(=O)Nc3cccc4c3CN(C3CCC(=O)NC3=O)C4=O)CC2)cc1` (stereo partly drawn) [SDC-TRAP-0193, 1-(4-(3-(2,4-dihydroxy-5-isopropylphenyl)-5-(ethylcarbamoyl)-4H-1,2,4-triazol-4-yl)benzyl)-N-((2S)-1-((2-(2,6-dioxopiperidin-3-yl)-1-oxoisoindolin-4-yl)amino)-4-methyl-1-oxopentan-2-yl)piperidine-4-carboxamide], the “Mass Retention” value in data set [2] (incubation 5 h, first table) is listed as 10.2%.
With `COc1cccc2c1C(=O)c1c(O)c3c(c(O)c1C2=O)C[C@@](O)(C(=O)CO)C[C@@H]3O[C@H]1C[C@H](N)[C@H](O)[C@H](C)O1` [Doxorubicin, doxorubicin, reference compound], in data set [2] (incubation 5 h, first table), the “Mass Retention” value is reported as 21.0%.
For the molecule `CC(C)c1cc(-c2nnc(O)n2-c2ccc3c(ccn3CCOCCNC(=O)CCn3cc(F)c(=O)[nH]c3=O)c2)c(O)cc1O` [SDC-TRAP-0048, N-(2-(2-(5-(3-(2,4-dihydroxy-5-isopropylphenyl)-5-hydroxy-4H-1,2,4-triazol-4-yl)-1H-indol-1-yl)ethoxy)ethyl)-3-(5-fluoro-2,4-dioxo-3,4-dihydropyrimidin-1(2H)-yl)propanamide], in data set [2] (incubation 5 h, first table), the “Mass Retention” value amounted to 10.8%.
Consider `CC(=O)O[C@@]12CO[C@@H]1C[C@H](O)[C@@]1(C)C(=O)[C@H](O)C3=C(C)[C@@H](OC(=O)[C@H](OC(=O)C4CCN(C(=O)C5CCN(Cc6ccc(-n7c(O)nnc7-c7cc(C(C)C)c(O)cc7O)cc6)CC5)CC4)[C@@H](NC(=O)OC(C)(C)C)c4ccccc4)C[C@@](O)([C@@H](OC(=O)c4ccccc4)[C@H]21)C3(C)C` [SDC-TRAP-0428], for which the “Tumor Conc.” value in data set [3] (of analyte at 6 h, dosed SDC-TRAP-0428 25 mg/10 mL/kg IV, Table 4) was 5.27 nmol/g of tissue; in data set [3] (of analyte at 24 h, dosed SDC-TRAP-0428 25 mg/10 mL/kg IV, Table 4) it was 3.89 nmol/g of tissue; in data set [3] (setting [7]), 3.40 nmol/g of tissue; in data set [3] (of analyte at 72 h, dosed SDC-TRAP-0428 25 mg/10 mL/kg IV, Table 4), 1.20 nmol/g of tissue. In data set [3] (setting [7]), the “Plasma Conc.” value was “BQL”.
Take `CCNC(=O)c1nnc(-c2cc(C(C)C)c(O)cc2O)n1-c1ccc(N(C)C2CCN(C(=O)CCC(=O)O[C@H](C(=O)O[C@@H]3C[C@]4(O)[C@H](OC(=O)c5ccccc5)[C@H]5C6(OC(C)=O)COC6C[C@@H](O)[C@]5(C)C(=O)[C@@H](O)C(=C3C)C4(C)C)[C@H](NC(=O)OC(C)(C)C)c3ccccc3)CC2)nc1` (some centres unmarked) [SDC-TRAP-0423]: the concentration at 6 h in data set [3] (female, SCID, mouse, in vivo, of analyte at 6 h, dosed SDC-TRAP-0423 7 mg/10 mL/kg IV, Table 5, second optimized procedure, read-out: Plasma Conc.) came to 2210 nM. For the same molecule, the “Tumor Conc.” value in data set [3] (of analyte at 6 h, dosed SDC-TRAP-0423 7 mg/10 mL/kg IV, Table 5, second optimized procedure) is 0.730 nmol/g of tissue; in data set [3] (setting [8]), 0.0538 nmol/g of tissue; in data set [3] (setting [9]), 0.0186 nmol/g of tissue. Further, the “Plasma Conc.” value in data set [3] (setting [8]) and in data set [3] (setting [9]) was “BQL” each time.

A word on the IC50: it is the concentration that inhibits the measured activity by half. High values mean weaker potency, low ones greater potency.
